Assays:
[1] = Solubility; assay type: physicochemical
Protocol: (§1) Neocopiamycin A has the following physico-chemical properties. • (1) Color and Appearance: neutral, colorless, hygroscopic powder. • (2) Melting point: 134 - 136°C. […] Neocopiamycin A gives negative reactions to biuret, ninhydrin, Molisch, Fehling, ferric chloride, Liebermann-Burchard, 2,4-dinitrophenylhydrazine reagents, but possitive reactions to Dragendorff, platinic iodide and Sakaguchi reagents. […] [formula] • (12) Chemical structure: • According to spectral data and physicochemical characteristics, the sturcture of neocopiamycin A can be presumed to have the following formula:- [drawing 3] • Neocopiamycin A has the following biological properties. • (13) Antimicrobial Activity • The minimum inhibitory concentration (MIC) of neocopiamycin A against bacteria, yeast and fungi were determined by a serial two-fold agar dilution method. […] The MICs were determined after incubation for 24 hours or 4 days at 37^*C for bacteria, and after incubation 24 hours to 7 days at 37°C for yeasts and fungi, depending on the test strain. • Antimicrobial spectrum of neocopiamycin A is given in Tables 2, 3 and 4 below. […] Antifungal spectra of copiamycin were similarly determined for the comparison purpose. […] [formula] • (14) Acute Toxicity • Acute toxicity of neocopiamycin A was determined with ddY mice weighing 20 to 21 g. […]

[2] = tested on: yeasts and fungi; assay: MIC by serial two-fold agar dilution method (Sabouraud dextrose agar); assay type: cell-based
Protocol: as §1, with “reagents. It also gives pinkish coloration with conc. sulfuric acid, which subsequently turned brown with time. • (8) Ultra violet absorption spectrum: As shown in Fig. 1 of the accompanying drawings. λ^MeOHmax 205 nm (log ε 4.2) • (9) Infrared absorption spectrum: As-shown in Fig. 2 of the accompanying drawing. IR (KBr)(cm^-1) : 3380, 2975, 2925, 1715, 1655, 1595, 1455, 1375, 1240, 1140, 1070, 975, 845. • (10) NMR spectrum: As shown in Fig. 3 of the accompanying drawing. • (11) Rf values of TLC: • A purified sample of neocopiamycin A gives only one spot when chromatographed on thin layer chromatography TLC (Silica gel 60, plate F254) in different solvent systems and bioautographed against Candida albicans or absorption of ultraviolet.” for “reagents.”

[3] = tested on: Trichomonas vaginalis; assay: Growth inhibition in thioglycolate medium; assay type: cell-based; parameters: unit not given here; conditions: thioglycolate medium with 0.5% dextrin and 15% bovine serum
[4] = tested on: Gram-negative bacteria; assay: MIC by serial two-fold agar dilution method (Muller-Hilton agar); assay type: cell-based; conditions: 24 hours or 4 days at 37°C
Protocol: as §1

[5] = tested on: Gram-positive bacteria; assay: as above; assay type: cell-based; conditions: 24 hours or 4 days at 37°C
Protocol: as §1

[6] = tested on: ddY mice; assay: Acute toxicity; assay type: in vivo; conditions: for dose tolerated by all mice for 14 days without any toxic signs: mouse, in vivo
Protocol: Neocopiamycin A has the following physico-chemical properties. • (1) Color and Appearance: neutral, colorless, hygroscopic powder. • (2) Melting point: 134 - 136°C. […] Neocopiamycin A gives negative reactions to biuret, ninhydrin, Molisch, Fehling, ferric chloride, Liebermann-Burchard, 2,4-dinitrophenylhydrazine reagents, but possitive reactions to Dragendorff, platinic iodide and Sakaguchi reagents. It also gives pinkish coloration with conc. sulfuric acid, which subsequently turned brown with time. • (8) Ultra violet absorption spectrum: As shown in Fig. 1 of the accompanying drawings. λ^MeOHmax 205 nm (log ε 4.2) • (9) Infrared absorption spectrum: As-shown in Fig. 2 of the accompanying drawing. IR (KBr)(cm^-1) : 3380, 2975, 2925, 1715, 1655, 1595, 1455, 1375, 1240, 1140, 1070, 975, 845. • (10) NMR spectrum: As shown in Fig. 3 of the accompanying drawing. • (11) Rf values of TLC: • A purified sample of neocopiamycin A gives only one spot when chromatographed on thin layer chromatography TLC (Silica gel 60, plate F254) in different solvent systems and bioautographed against Candida albicans or absorption of ultraviolet. The Rf values and solvent systems employed are summarized in Table 1. [formula] • (12) Chemical structure: • According to spectral data and physicochemical characteristics, the sturcture of neocopiamycin A can be presumed to have the following formula:- [drawing 3] • Neocopiamycin A has the following biological properties. • (13) Antimicrobial Activity • The minimum inhibitory concentration (MIC) of neocopiamycin A against bacteria, yeast and fungi were determined by a serial two-fold agar dilution method. The medium used was Muller-Hilton agar for bacteria, and Sabouraud dextrose agar for yeasts and fungi. The antibiotic was dissolved in a small amount of ethanol and diluted with sterilized water to give final agar media containing less than one percent of the organic solvent, which was not a harmful concentration against the organisms tested. The MICs were determined after incubation for 24 hours or 4 days at 37^*C for bacteria, and after incubation 24 hours to 7 days at 37°C for yeasts and fungi, depending on the test strain. • Antimicrobial spectrum of neocopiamycin A is given in Tables 2, 3 and 4 below. […] Furthermore, it should be pointed out that neocopiamycin A inhibits the growth of both the filamentous and yeast- like fungi at the concentrations below 10 µg/ml. […] Antifungal spectra of copiamycin were similarly determined for the comparison purpose. [formula] [formula] • (14) Acute Toxicity • Acute toxicity of neocopiamycin A was determined with ddY mice weighing 20 to 21 g. Neocopiamycin A was finely pulverized and suspended in 15% aqueous ethanol solution for intraveneous, intraperitoneal and oral administrations. […]

Question: For `CC(CCC/C=C/CCCN=C(N)N)CC(C)C1OC(=O)C=CC(C)C(O)CC(O)C(C)C(O)CCC(C)C(O)CC2(O)OC(CC(OC(=O)CC(=O)O)CC(O)CC(O)C(C)C(O)/C=C\C1C)CC(O)C2O` (stereo not drawn) [neocopiamycin A], which Solubility ([1]; acetone, dioxane, chloroform, carbon tetrachloride, ethyl acetate, butyl acetate, petroleum ether, benzene, methyl isobutyl ketone and water) is on record?
Answer: The Solubility was “sparingly soluble or insoluble”.

Question: What about the Solubility ([1]; methanol, ethanol, n-butanol, pyridine, dimethylformamide, glacial acetic acid) of the same molecule?
Answer: The Solubility was “soluble”.

Question: And the “concentrations inhibiting the growth of both the filamentous and yeast-like fungi” value ([2]; Sabouraud dextrose agar, incubation 24 hours to 7 days at 37°C)?
Answer: Its value is “below 10 µg/ml”.

Question: What about the “antimicrobial activity compared with copiamycin” value ([2]; Tables 2, 3 and 4, comparison with copiamycin) of the same molecule?
Answer: Its value is “much higher antimicrobial activity than copiamycin”.

Question: What about the “antimicrobial activity against fungi, yeasts” value ([2]; wide range of fungi, yeasts, agar dilution) of the same molecule?
Answer: Its value is “active”.

Question: What about the “concentration inhibiting the growth of Trichomonas vaginalis” value [3] of the same molecule?
Answer: Its value is 1.56.

Question: What about the “antimicrobial activity against Gram-negative bacteria” value [4] of the same molecule?
Answer: The value was “inactive”.

Question: And the “antimicrobial activity against Gram-positive bacteria” value [5]?
Answer: Its value is “active”.

Question: And the “toxicity compared with copiamycin” value ([6]; comparison with copiamycin)?
Answer: Its value is “less toxic than copiamycin”.

Question: And the “dose tolerated by all mice for 14 days without any toxic signs” value ([6]; ip, 336 h)?
Answer: Its value is “more than 1,000 mg/kg”.

Question: What about the “dose tolerated by all mice for 14 days without any toxic signs” value ([6]; iv) of the same molecule?
Answer: Its value is 30.

Question: And the “dose tolerated by all mice for 14 days without any toxic signs” value ([6]; po, 336 h)?
Answer: The value was “more than 1,000 mg/kg”.

— EP0137692A2, “New antibiotic, neocopiamycin A and the production thereof” (Arai, Tadashi, Prof., priority 1983, dated 1985)
